Test results published in patent US20250268854A1, “2-AMINO-5,5-DIMETHYLHEXANOIC ACID DERIVATIVES AS SORTILIN MODULATORS FOR USE IN THE TREATMENT OF DISEASE OF THE CENTRAL NERVOUS SYSTEM” (c/o Vesper Bio ApS, priority 2021, published 2025).
Structures can show the parent of a compound that is named as a salt.

Key:
[1] = Blood-brain-barrier permeability of study compounds in mice after PO administration; conditions: mouse; for concentration at 1 h: po, T = 1 hour; for blood brain barrier penetration: conclusion in words; for Kp uu at 1 h: brain and plasma (unbound concentrations), oral, Kpuu, ratio of unbound brain to unbound plasma concentration
Description: (§12) Separately, the fraction of compound bound to plasma protein or brain homogenate was measured to allow assessment of free fractions.
(§13) In practice, unbound fractions in plasma and brain tissue were assessed using rapid equilibrium dialysis in vitro. Separately a pharmacokinetic study was run in vivo whereby a dose of the compound of interest was given at T=0 hours and at subsequent timepoints (eg 0.5, 1 and 4 hours) plasma and separately brain samples were analysed for total concentration of the compound of interest. These total concentrations could then be adjusted with the unbound fraction to give the unbound concentrations in the plasma and brain. The unbound partition coefficient (Kpuu) was then determined as a ratio between the free compound concentrations in the compartment of interest, here the brain/CNS and the plasma.
(§14) The compound is administered to the animal in a suitable vehicle at T=0 hours. At one hour post administration plasma and separately brain are removed, prepared and analysed for total compound concentration.
(§15) Mouse brain samples were prepared for analysis by homogenization with Omni bead ruptor, using 4-fold volume of 150 mM phosphate buffered saline (PBS) (E.g. 400 uL PBS+100 mg brain). After homogenization, a 30 μL homogenate sample was mixed with 60 μL of internal standard solution (100 ng/ml of repaglinide and phenacetin in acetonitrile (ACN) containing 1% formic acid) and mixed. Samples were centrifuged for 20 minutes (4000 rpm, Thermo Scientific SL16) and 50 μl of supernatant, together with 100 μl of 50% acetonitrile was transferred on an analytical plate. Standard samples were prepared by spiking blank brain homogenate to obtain concentrations from 0.1 to 10 000 ng/ml in brain homogenate by using one volume of spiking solution and nine volumes of blank homogenate. Quality control (QC) samples were prepared for concentrations at 3, 30, 300 and 3000 ng/ml by using one volume of spiking solution and nine volumes of blank brain homogenate. The standards and QCs were then prepared for analysis similarly as the samples. Blank brain matrix was collected in-house from CD-1 mice.
(§16) The samples were prepared by mixing 30 μL of plasma sample with 60 μL of internal standard solution (100 ng/ml of repaglinide and phenacetin in ACN with 1% of formic acid) and mixed. Samples were centrifuged for 20 minutes (4000 rpm, Thermo Scientific SL16) and 50 μl of supernatant, together with 100 μl of 50% acetonitrile was transferred on analytical plate. 10 μl of diluted samples were transferred on analytical plate and further diluted with 190 μl of 50% acetonitrile. Standard samples were prepared by spiking blank plasma to obtain concentrations from 0.1 to 10 000 ng/ml in plasma by using one volume of spiking solution and nine volumes of blank plasma. Quality control (QC) samples were prepared for concentrations at 3, 30, 300 and 3000 ng/ml by using one volume of spiking solution and nine volumes of plasma. The standards and QCs were then prepared for analysis similarly as the samples. Blank plasma was collected in-house from CD-1 mice.
(§17) Instrumentation: Waters Acquity UPLC+Waters TQ-S triple quadrupole MS; Column: Waters Acquity HSS T3 (2.1×50 mm, 1.8 μm) column with pre-column filter; Gradient Elution; A=0.1% Formic acid, B=Acetonitrile

in vivo = conditions: mouse, Kpuu
Description: as §12, §13, §14, §15, §16, §17

[2] = Plasma protein binding by rapid equilibrium dialysis; format: in vitro ADME; conditions: 37° C.; for Mouse Plasma Unbound (Fu, %): CD1-mouse plasma, 5 μM, 4 hours; for fraction unbound at 4 h, 5 μM: pH 7.4, CD1-mouse plasma, read-out: Mouse Plasma Unbound (Fu, %)
Description: (§1) Rapid Equilibrium Dialysis The test compounds were incubated in CD1-mouse plasma and brain homogenate at 37° C. in RED device with inserts (8K MWCO, Thermo scientific) for 4 hours at 5 μM in triplicates. 350 μL of 150 mM phosphate buffered saline (PBS, pH 7.4) was used as the receiver side solutions. The samples were collected from both sides after 4 hours equilibration time and their matrices were made similar by diluting the donor side sample using blank PBS, and by diluting the receiver side sample using blank plasma/phosphate buffered saline. After the incubation, aliquots of donor side matrixes were diluted with an equal volume of the blank receiver side matrix and aliquots of receiver side matrixes were diluted with an equal volume of blank donor side matrix. All samples were protein precipitated by addition of a two-fold volume of acetonitrile containing 100 nM of repaglinide as an internal standard. After 10-minute centrifugation at 13 200 rpm, the sample supernatants were analysed with an LC-MS/MS, to obtain the unbound fraction of the test compound (Fub). The unbound fraction was calculated from the peak area ratios obtained for each matrix: […]
where CPBS and Cplasma are the analyte concentrations in PBS (receiver) and plasma (donor), respectively.
(§2) Recovery samples were prepared in each condition but without dialysis, and were used for evaluation of recovery from the dialysis experiment using following formula: […]
(§3) where VPBS is the volume on the receiver side (PBS) and Vplasma is the volume on donor side (plasma) of the dialysis device. Crecovery is the analyte concentration measured from the recovery sample.
(§4) Propranolol (1 μM) and fluoxetine (5 μM) were included in the experiment as a control compounds.

[3] = Brain homogenate binding by rapid equilibrium dialysis; format: in vitro ADME; conditions: 37° C.; for Mouse Brain Unbound (Fu, %): 5 μM, 4 hours, dilution factor 5; for fraction unbound at 4 h, 5 μM: CD1, pH 7.4, mouse brain homogenate, dilution factor 5, read-out: Mouse Brain Unbound (Fu, %)
Description: as §1, §2, §3, §4
The unbound fraction in brain (Fub, brain) was calculated from the measured value in brain homogenate (Fub, meas), taking into account the dilution factor used in preparing the brain homogenate:
where D=dilution factor (here 5).

human Sortilin = human Sortilin (Homo sapiens (Human), UniProt Q99523); assay: Creoptix (GCI) binding kinetics, human Sortilin; conditions: screened at 1 μM
human Sortilin, sequence (Q99523 78-755): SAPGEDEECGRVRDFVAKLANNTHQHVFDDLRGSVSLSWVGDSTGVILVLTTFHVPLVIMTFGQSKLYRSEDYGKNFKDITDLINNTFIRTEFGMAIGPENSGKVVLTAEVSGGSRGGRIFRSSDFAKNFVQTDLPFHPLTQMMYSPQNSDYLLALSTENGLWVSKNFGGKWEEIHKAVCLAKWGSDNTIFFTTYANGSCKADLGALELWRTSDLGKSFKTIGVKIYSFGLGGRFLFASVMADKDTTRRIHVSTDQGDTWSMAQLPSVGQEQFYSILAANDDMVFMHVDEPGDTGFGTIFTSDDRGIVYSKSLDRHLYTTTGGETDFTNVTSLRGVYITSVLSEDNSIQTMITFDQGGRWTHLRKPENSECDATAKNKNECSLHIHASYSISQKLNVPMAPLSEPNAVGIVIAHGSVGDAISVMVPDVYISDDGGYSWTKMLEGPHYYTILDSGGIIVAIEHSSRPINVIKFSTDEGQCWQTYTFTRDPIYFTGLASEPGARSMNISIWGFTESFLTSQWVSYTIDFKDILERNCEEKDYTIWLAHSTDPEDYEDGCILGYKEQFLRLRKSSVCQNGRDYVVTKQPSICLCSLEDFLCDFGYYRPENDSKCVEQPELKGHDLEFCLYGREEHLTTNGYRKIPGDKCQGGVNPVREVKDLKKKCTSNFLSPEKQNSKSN
Description: (§5) A protein, bound to a surface, is bathed in a solution containing potential ligands giving rise to binding kinetics to generate Kon and Koff rates, as well as a Kd.
(§6) All buffers described were filtered using a 0.2 μm filter (Product number: 10300461, Nalgene) and degassed for 15 minutes prior to use.
(§7) A flow cell temperature of 25 degrees Celsius was used throughout the experiment.
(§8) A 4PCH chip was conditioned across all flow cells using 0.2× concentration running buffer (running buffer composition: 1×HBS-N, pH 7.4, 3.4 mM EDTA, 1% DMSO) using pre-set conditioning wizard (WAVE control software) injecting: 0.1 M borate, 1 M NaCl (pH 9) followed by three start-up injections of 0.2× running buffer.
(§9) A buffer exchange was performed and 1× running buffer (1×HBS-N, pH 7.4, 3.4 mM EDTA, 1% DMSO) used during the immobilisation procedure:
(§10) An initial injection of EDC/NHS (mixed in 1:1 ratio) was performed across all 4-flow cells to activate the surface for amine coupling of ligands.
Recombinant Sortilin aliquots were thawed quickly by hand and centrifuged at 13,300 rpm for 10 minutes. A 10 μg/ml protein solution was then made in pH 5.0 acetate and injected once for 20 minutes over flow-cells 2, 3 and 4 for human, human (flow cells 2 & 3), and mouse Sortilin respectively followed by a 60 second dissociation period.
A final 7-minute passivation injection of 50 mM tris was used across all flow cells.
A flow rate of 10 μl/min was used for all conditioning and immobilisation cycles.
Compounds were screened at 1 μM using the in-built ‘intermediate binders’ settings: 100 ul/min, 45 s baseline, 25 s association, 300 s dissociation, with blanks every 5th sample and a DMSO correction (1.5% DMSO at the start and end of the experiment as well as every 20 cycles. An acquisition rate of 10 Hz was used throughout the experiment.
Compounds were screened at a final assay concentration of 1 μM and a final DMSO concentration was 1%. To achieve this, compounds were diluted in DMSO from 10 mM stocks to 100 μM (100×final assay concentration) then diluted 1:100 in running buffer which contained no DMSO to establish a final assay concentration of compound of 1 μM and a final DMSO concentration of 1% [DMSO].
Compounds and DMSO were mixed by plate shaking at 1000 rpm for 60 seconds using a Bioshake instrument.
A flow rate of 100 μl/min was used throughout the experiment.
(§11) Data was evaluated using the RAPID kinetic analysis tool in the GCI WAVE_control software with data fitted using a standard 1:1 kinetic BioModel.

mouse Sortilin = mouse Sortilin (Mus musculus (Mouse), UniProt Q6PHU5); assay: Creoptix (GCI) binding kinetics, mouse Sortilin; conditions: screened at 1 μM
mouse Sortilin, sequence (Q6PHU5 76-753): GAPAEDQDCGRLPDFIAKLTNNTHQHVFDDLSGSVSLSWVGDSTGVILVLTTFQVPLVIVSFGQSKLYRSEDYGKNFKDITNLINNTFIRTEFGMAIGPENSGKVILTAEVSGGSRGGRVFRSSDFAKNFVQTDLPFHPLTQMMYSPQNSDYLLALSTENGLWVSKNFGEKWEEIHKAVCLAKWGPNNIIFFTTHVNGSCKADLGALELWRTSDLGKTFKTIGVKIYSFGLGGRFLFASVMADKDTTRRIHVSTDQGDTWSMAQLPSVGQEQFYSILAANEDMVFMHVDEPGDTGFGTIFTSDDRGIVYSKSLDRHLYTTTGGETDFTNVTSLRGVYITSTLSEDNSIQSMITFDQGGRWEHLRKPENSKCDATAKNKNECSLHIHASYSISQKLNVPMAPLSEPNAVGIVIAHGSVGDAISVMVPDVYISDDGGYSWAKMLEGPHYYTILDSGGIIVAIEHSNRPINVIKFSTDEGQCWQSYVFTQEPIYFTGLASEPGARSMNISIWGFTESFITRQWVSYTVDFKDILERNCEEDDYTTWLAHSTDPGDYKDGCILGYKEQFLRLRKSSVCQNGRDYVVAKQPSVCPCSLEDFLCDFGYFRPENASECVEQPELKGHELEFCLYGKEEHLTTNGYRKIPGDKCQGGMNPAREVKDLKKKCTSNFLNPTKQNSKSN
Description: as §5, §6, §7, §8, §9, §10
Recombinant Sortilin aliquots were thawed quickly by hand and centrifuged at 13,300 rpm for 10 minutes. […]
as §11

h-Sortilin = h-Sortilin (Homo sapiens (Human), UniProt Q99523); assay: Neurotensin (NTS) scintillation proximity assay (SPA): displacement of [3H]-neurotensin binding; conditions: 150 nM 6his-Sortilin, 5 nM [3H]-Neurotensin; average of at least 2 determinations
h-Sortilin, sequence (Q99523 78-831): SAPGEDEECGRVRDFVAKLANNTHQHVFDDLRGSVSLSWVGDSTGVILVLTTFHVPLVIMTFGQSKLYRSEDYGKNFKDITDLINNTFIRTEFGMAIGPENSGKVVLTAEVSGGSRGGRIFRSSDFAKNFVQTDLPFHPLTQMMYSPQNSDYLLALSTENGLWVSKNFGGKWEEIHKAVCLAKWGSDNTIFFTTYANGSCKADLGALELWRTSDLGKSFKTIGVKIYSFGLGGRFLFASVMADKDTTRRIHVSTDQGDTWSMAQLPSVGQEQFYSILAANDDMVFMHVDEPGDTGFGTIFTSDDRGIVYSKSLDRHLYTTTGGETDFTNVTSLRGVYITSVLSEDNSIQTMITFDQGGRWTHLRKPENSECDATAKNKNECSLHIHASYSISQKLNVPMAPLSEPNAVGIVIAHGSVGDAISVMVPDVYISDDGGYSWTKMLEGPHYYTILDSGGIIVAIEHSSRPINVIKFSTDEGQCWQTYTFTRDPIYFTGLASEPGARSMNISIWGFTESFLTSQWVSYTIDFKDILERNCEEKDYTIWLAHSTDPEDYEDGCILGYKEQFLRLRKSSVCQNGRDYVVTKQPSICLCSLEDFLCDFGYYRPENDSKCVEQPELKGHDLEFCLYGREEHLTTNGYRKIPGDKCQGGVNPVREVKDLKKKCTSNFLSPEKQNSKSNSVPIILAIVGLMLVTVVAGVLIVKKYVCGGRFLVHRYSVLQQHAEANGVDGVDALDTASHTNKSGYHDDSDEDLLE
In short: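 Scintillation proximity format measuring displacement of [3H]-neurotensin from human sortilin. IC50 by nonlinear variable-slope sigmoid regression, averaged over at least 2 determinations.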

[4] = brain, Brain Tissue Concentration (ng/g) T = 1 hour
[5] = brain, Unbound Brain Concentration (ng/mL) T = 1 hour
[6] = plasma, Total Plasma Concentration (ng/ml) T = 1 hour
[7] = plasma, Unbound Plasma Concentration (ng/mL) T = 1 hour

| SMILES | concentration at 1 h [1, 4] [ng/g] | concentration at 1 h [1, 5] [ng/mL] | concentration at 1 h [1, 6] [ng/mL] | concentration at 1 h [1, 7] [ng/mL] | blood brain barrier penetration [1] | Kp uu at 1 h (in vivo) | Mouse Plasma Unbound (Fu, %) [2] [%] | fraction unbound at 4 h, 5 μM [2] | Mouse Brain Unbound (Fu, %) [3] [%] | fraction unbound at 4 h, 5 μM [3] | Kp uu at 1 h [1] | Kd (human Sortilin; Free acid) [nM] | Kd (human Sortilin; Ms salt) [nM] | Kd (human Sortilin; MsOH salt) [nM] | Kd (mouse Sortilin; HCl salt) [nM] | IC50 (h-Sortilin) [nM] | Kd (mouse Sortilin; Free acid) [nM] |
| --- | --- | --- | --- | --- | --- | --- | --- | --- | --- | --- | --- | --- | --- | --- | --- | --- | --- |
| Cc1cccc(NC(=O)c2ccc(C(F)(F)F)cc2C(=O)O)n1 [Comparative Example 1, reference compound] | 0.9 | 0.2 | 393 | 27 | did not show a blood brain barrier penetration | < 0.1 |  |  |  |  |  |  |  |  |  |  |  |
| COc1cccc(CN[C@@H](CCC(C)(C)C)C(=O)O)c1.Cl [Example 5, (2S)-2-{[(3-methoxyphenyl)methyl]amino}-5,5-dimethylhexanoic acid] | 48.5 | 14 | 3560 | 117 | permeate the blood brain barrier |  | 3.3 | 0.033 | 29.1 | 0.291 | > 0.1 | 1930 | 423 | 396 | 1020 | 560 |  |
| Cn1ccc2c(CN[C@@H](CCC(C)(C)C)C(=O)O)cccc21 [Example 6, (S)-5,5-dimethyl-2-(((1-methyl-1H-indol-4-yl)methyl)amino)hexanoic acid hydrochloride] | 6.25 | 1.4 | 138 | 8 | permeate the blood brain barrier |  | 5.8 | 0.058 | 22.9 | 0.229 | > 0.1 |  |  |  |  | 330 |  |
| CC(C)(C)CC[C@H](NCc1cnc2ccccc2c1)C(=O)O [Example 35, (2S)-5,5-dimethyl-2-{[(quinolin-3-yl)methyl]amino}hexanoic acid] |  |  |  |  |  |  |  |  |  |  |  | 895 |  |  |  | 650 | 1050 |
| COc1cncc(CN[C@@H](CCC(C)(C)C)C(=O)O)c1 [Example 144, (2S)-2-{[(5-methoxypyridin-3-yl)methyl]amino}-5,5-dimethylhexanoic acid] |  |  |  |  |  |  |  |  |  |  |  | 310 |  |  |  | 430 |  |
